We go through three molecules from patent US7459583B2, “Method for providing a cathartic effect” (Sucampo AG, priority 2001, dated 2008).

The assay deals with Male Wistar rats. The assay can be described thus: Enteropooling effect (intestinal fluid volume) in fasted rats. The following applies: intestinal fluid volume 30 min after administration, dose yielding a 50% increase relative to vehicle control; for ED50: Rattus norvegicus, 0.5 h. The assay is classed as in vivo, rat. The procedure: Male Wistar rats (Crj Wistar Rat, body weight: 180-200 g) were used. Animals were fasted for 24 hours with free access to water. 5 mL/kg of distilled water containing the compound 5, PGE1 or PGE2 was orally administrated (p.o.), or 2 mL/kg of physiological saline containing the compound 5 was injected intravenously (i.v.) to the animals. Thirty minutes after the administration, the animals were euthanized by cervical dislocation, and the abdominal cavity was opened surgically. The intestinal fluid was collected and its volume was measured. The dose of test substance yielding a 50% increase in intestinal fluid volume relative to the control group, which was received the vehicle only, was defined as the ED50 value.

For `CCCCC(F)(F)C(O)CC[C@H]1[C@H](O)CC(=O)[C@@H]1CCCCCCC(=O)O` (stereo partly shown) [Compound 5, 13,14-dihydro-15RS-hydroxy-16,16-difluoro-PGE1], the ED50 turned out to be 0.88 µg/kg (iv, i.v. in physiological saline) and 0.6 µg/kg (po, p.o. in distilled water). As for `CCCCC[C@H](O)/C=C/[C@H]1[C@H](O)CC(=O)[C@@H]1CCCCCCC(=O)O` [PGE1], under “p.o. in distilled water”, the “Enteropooling ED50” value is 420 µg/kg. Regarding `CCCCC[C@H](O)/C=C/[C@H]1[C@H](O)CC(=O)[C@@H]1C/C=C\CCCC(=O)O` [PGE2], the “Enteropooling ED50” value (p.o. in distilled water) stood at 130 µg/kg.

Broadly, the ED50 is the midpoint of the dose-response relation. A higher ED50 goes with a need for a large dose.
